Converted amounts (≈) assume the structure as drawn. Where a SMILES comes first, the peptide text is derived from it. Bridges are numbered along the chain shown (N, C = ends). [ ]: non-standard residue; d: D form. The star is where a group is joined. Val(Nα-amidino) = CC(C)[C@H](NC(=N)N)C(=O)*; Hyp = O=C(O)[C@@H]1C[C@@H](O)CN1; Pen = CC(C)(S)[C@H](N)C(=O)O; dDab = NCC[C@@H](N)C(=O)O; Dab = NCC[C@H](N)C(=O)O
Assays:
[1] = Tolerability (single day, IV bolus q12h); assay type: in vivo, CD-1 mice; conditions: for Tolerability (IV bolus, q12h): mice died: single day
Method: (§1) Two different study designs were used to determine the potential toxicity of these compounds, when given BID via intravenous bolus (injection) 12 hours apart to CD-1 mice. In the first type of study, male mice were dosed on a single day at three escalating dose levels (three mice per group), while the second type of study male mice (nine mice per group) were dosed for seven consecutive days with the same administration regimen (q12h). […] Detailed clinical observations were conducted up to at least 3 hours after the first daily dosing and up to at least 1 hour after the second daily dosing. In addition, the Irwin battery of tests was used to assess the mice neurobiological and physiological state during the single day study at 30, 60, 120, 180, and 240 min after the first administration. The following parameters were included in the observations: occurrence of abnormal gait, catalepsy, piloerection, abnormal respiration, increase or decrease in spontaneous activity, spontaneous activity following audible stimuli (tapping on side of cage), touch response, and body tonus. Any additional symptoms observed were also reported.

[2] = 7-day repeated dosing (IV bolus q12h); assay type: in vivo, CD-1 mice; conditions: mice, intravenous BID 15 mg/kg per dose, seven consecutive days
Method: as §1

[3] = test system: human red blood cells; assay: Haemolysis; assay type: cell-based; conditions: PBS-washed human red blood cells; 1 h at 200 mg/liter, 37°C; OD 540 nm; versus 100% lysis control 2.5% Triton X-100; biological replicates
Method: To test their hemolytic potential, compounds were incubated in the presence of phosphate-buffered saline (PBS)–washed human red blood cells. After 1-hour incubation at 200 mg/liter and 37°C, the samples were centrifuged (3220g), the supernatants were diluted in Dulbecco’s PBS, and optical density at 540 nm was determined. The hemolysis induced by the compound was calculated versus a 100% lysis control prepared with 2.5% Triton X-100 (table S4A).

[4] = test system: panel of 121 Enterobacteriaceae including CRE, MDR, and XDR isolates; assay: organism not typed; conditions: for MIC50 (n=121): CLSI microdilution method, 121 isolates
Method: MIC assays [Clinical and Laboratory Standards Institute (CLSI) methodology] and serial passage studies were performed as described by Luther et al. ([6]). […] Resistant mutants were isolated, and their MIC values were determined and sent to Microbes NG (Birmingham, United Kingdom) for whole-genome sequencing and bioinformatic analysis.

[5] = target: T1, LptAmQ62L, D33A (Escherichia coli, UniProt P0ADV1, D33A/Q62L); assay: FP indirect (competition) binding assay; design: species or system E. coli
T1 construct: His6-GB1 (N, cleaved yes); made in house; host or cells: E. coli BL21 (DE3)
Method: (§2) Protein stocks were purified and concentrated in buffer 1 [50 mM Na-Pi (pH 7) and 150 mM NaCl] and, if necessary, diluted to desired concentrations using buffer 2 [50 mM Na-Pi (pH 7), 150 mM NaCl, and 0.05% Tween 20]. Peptide stocks and fluorescently labeled peptide stocks were made in buffer 2. Every serial dilution consisted of 24 wells, the first well with the highest concentrate and the last well (well 24) with the lowest. First, 50 μl of buffer 2 was added to the wells 2 to 24 of each serial dilution. Then, 100 μl of concentrated unlabeled peptide/protein in their respective buffers was added to the first well. Fifty microliters were taken from the first well and added to the second well for a 1:1 serial dilution and continued for the 24 wells. […] Plates were covered with adhesive seals and left to incubate overnight at 4°C before FP measurements the next day. Anisotropy was measured using the Tecan Safire2 plate reader using a 10-nm bandwidth and setting the excitation and emission wavelengths to 635 and 670 nm, respectively. The G-factor (G) was also determined empirically as 1.094 for the instrument and included in all the anisotropy calculations.
(§3) For the indirect binding assays, r was calculated in the same manner as the direct binding assays. […] The control was subtracted from r to yield r′. Data were fit to a sigmoidal interpolation model on GraphPad Prism 9, and an IC50 was generated for each unlabeled peptide or protein measured.

[6] = target: T2, LptAmD33A (Escherichia coli, UniProt P0ADV1, D33A); assay: FP indirect (competition) binding assay; design: species or system E. coli
T2 construct: His6-GB1 (N, cleaved yes); made in house; host or cells: E. coli BL21 (DE3)
Method: as §2, §3

[7] = test system: Klebsiella pneumoniae NCTC 13443 LpxC, LpxD mutant; assay: microbe, parasite or virus in culture; conditions: Table S9 panel; other mutation
How it was run: (§4)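 MICs were determined by CLSI methodology. Serial passage studies were also run, and resistant mutants isolated from them were re-tested for MIC and then characterised by whole-genome sequencing.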

[8] = test system: Klebsiella pneumoniae ATCC 43816 LptA I36S mutant; assay: microbe, parasite or virus in culture; conditions: Table S9 panel
How it was run: as §4

[9] = test system: Escherichia coli ATCC 25922 KdsD mutant; assay: microbe, parasite or virus in culture; conditions: Table S9 panel; other mutation
How it was run: as §4

[10] = test system: Klebsiella pneumoniae ATCC 43816 LapB mutant; assay: microbe, parasite or virus in culture; conditions: Table S9 panel; other mutation
How it was run: as §4

[11] = test system: Klebsiella pneumoniae NCTC 13443 YejM mutant; assay: microbe, parasite or virus in culture; conditions: Table S9 panel; other mutation
How it was run: as §4

[12] = test system: K. pneumoniae ATCC 43816 LptA Q62L mutant; assay: microbe, parasite or virus in culture; conditions: Table S9 panel
How it was run: as §4

[13] = test system: Klebsiella pneumoniae ATCC 43816 PglJ, PhnJ, ThiH mutant; assay: microbe, parasite or virus in culture; conditions: Table S9 panel; other mutation
How it was run: as §4

[14] = test system: Klebsiella pneumoniae ATCC 43816 LptA I36N mutant; assay: microbe, parasite or virus in culture; conditions: Table S9 panel
How it was run: as §4

[15] = test system: Klebsiella pneumoniae NCTC 13443 LptA I36S mutant; assay: microbe, parasite or virus in culture; conditions: Table S9 panel
How it was run: as §4

[16] = test system: Escherichia coli ATCC 25922 LptA E84D mutant; assay: microbe, parasite or virus in culture; conditions: Table S9 panel
How it was run: as §4

[17] = test system: Klebsiella pneumoniae ATCC 43816 LptA L116Q mutant; assay: microbe, parasite or virus in culture; conditions: Table S9 panel
How it was run: as §4

T1 sequence (P0ADV1 28-159 D33A/Q62L): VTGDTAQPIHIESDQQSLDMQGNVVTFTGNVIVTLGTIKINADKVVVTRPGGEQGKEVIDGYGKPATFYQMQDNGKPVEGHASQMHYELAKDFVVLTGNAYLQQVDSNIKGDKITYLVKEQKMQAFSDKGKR
T2 sequence (P0ADV1 28-159 D33A): as the sequence (P0ADV1 28-159 D33A/Q62L) above, with L35Q counted along it

## CC[C@H](C)[C@H](NC(=O)[C@@H]1C[C@@H](O)CN1C(=O)[C@@H](NC(=N)N)C(C)C)C(=O)N[C@H](C(=O)N[C@@H](Cc1ccc(O)cc1)C(=O)N[C@@H]1C(=O)N[C@@H](CC(N)=O)C(=O)N[C@@H](CCCNC(=N)N)C(=O)N[C@@H](CCN)C(=O)N[C@@H]([C@@H](C)O)C(=O)N[C@H](CCN)C(=O)N[C@@H](CCCCN)C(=O)N[C@H](C(=O)N[C@@H](CCN)C(=O)N[C@@H](CCCNC(=N)N)C(=O)N[C@@H](Cc2ccc(O)cc2)C(=O)O)CSSC1(C)C)[C@@H](C)O [Compound 7] ({Val(Nα-amidino)}-[Hyp]ITY[Pen]NR[Dab]T[dDab]KC[Dab]RY-OH; disulfide 5-12)
[1]; at 30 mg/kg/day q12h
  Tolerability (IV bolus, q12h): mice died: 0/3
[1]; mice, intravenous, twice a day (q12h)
  Tolerated dose, intravenous BID: up to 30 mg/kg per day
[2]
  Tolerability in repeat dose safety study: well tolerated with no adverse events or detectable kidney toxicity
[3]
  Haemolysis % at 0.2 g/L: 0%
[4]
  MIC50 (n=121): 0.25 µg/mL (≈ 0.125 µM)
[5]
  IC50: 23.2 ± 10 nM
  Ki: 17 ± 7.3 nM
[6]
  IC50: 32.3 ± 3.4 nM
  Ki: 23.4 ± 2.5 nM
[7]
  MIC Klebsiella pneumoniae NCTC 13443 LpxC, LpxD (1x): 1 µg/mL (≈ 0.5 µM)
[8]
  MIC Klebsiella pneumoniae ATCC 43816 LptA I36S (1x): 2 µg/mL (≈ 0.999 µM)
[9]
  MIC Escherichia coli ATCC 25922 KdsD (2x): 0.5 µg/mL (≈ 0.25 µM)
[10]
  MIC Klebsiella pneumoniae ATCC 43816 LapB (1x): 0.5 µg/mL (≈ 0.25 µM)
[11]
  MIC Klebsiella pneumoniae NCTC 13443 YejM (1x): 2 µg/mL (≈ 0.999 µM)
[12]
  MIC Klebsiella pneumoniae ATCC 43816 LptA Q62L (4x): 8 µg/mL (≈ 4 µM)
[13]
  MIC Klebsiella pneumoniae ATCC 43816 PglJ, PhnJ, ThiH (1x): 0.5 µg/mL (≈ 0.25 µM)
[14]
  MIC Klebsiella pneumoniae ATCC 43816 LptA I36N (1x): 2 µg/mL (≈ 0.999 µM)
[15]
  MIC Klebsiella pneumoniae NCTC 13443 LptA I36S (2x): 8 µg/mL (≈ 4 µM)
[16]
  MIC Escherichia coli ATCC 25922 LptA E84D (1x): 1 µg/mL (≈ 0.5 µM)
[17]
  MIC Klebsiella pneumoniae ATCC 43816 LptA L116Q (1x): 2 µg/mL (≈ 0.999 µM)

## CC[C@H](C)[C@H](NC(=O)[C@@H]1C[C@@H](O)CN1C(=O)[C@@H](N)C(C)C)C(=O)N[C@H](C(=O)N[C@@H](Cc1ccc(O)cc1)C(=O)N[C@@H]1C(=O)N[C@@H](CC(N)=O)C(=O)N[C@@H](CCCNC(=N)N)C(=O)N[C@@H](CCN)C(=O)N[C@@H]([C@@H](C)O)C(=O)N[C@H](CCN)C(=O)N[C@@H](CCCCN)C(=O)N[C@H](C(=O)N[C@@H](CCN)C(=O)N[C@@H](CCCNC(=N)N)C(=O)N[C@@H](Cc2ccc(O)cc2)C(=O)O)CSSC1(C)C)[C@@H](C)O [Compound 6] (H-V[Hyp]ITY[Pen]NR[Dab]T[dDab]KC[Dab]RY-OH; disulfide 6-13)
[1]; at 40 mg/kg/day q12h
  Tolerability (IV bolus, q12h): mice died: 0/3
[2]
  Tolerability in repeat dose safety study: well tolerated with no adverse events or detectable kidney toxicity
[3]
  Haemolysis % at 0.2 g/L: 0%
[4]
  MIC50 (n=121): 0.25 µg/mL (≈ 0.128 µM)
[4]; panel of 121 Enterobacteriaceae including CRE, MDR, and XDR isolates
  MIC90: 1 µg/mL (≈ 0.51 µM)
